{
  "source": "ChEMBL document CHEMBL2203257",
  "about": "(Bioorg Med Chem Lett, 2012)",
  "key": {"[1]": {"target": "Calcium/calmodulin-dependent protein kinase type 1D (Homo sapiens, UniProt Q8IU85)", "test": "Inhibition of CAMK1D"}, "[2]": {"target": "Ribosomal protein S6 kinase alpha-1 (Homo sapiens, UniProt Q15418)", "test": "Inhibition of RPS6KA1"}, "[3]": {"target": "Casein kinase I isoform alpha (Homo sapiens, UniProt P48729)", "sequence (P48729 whole entry, canonical isoform)": "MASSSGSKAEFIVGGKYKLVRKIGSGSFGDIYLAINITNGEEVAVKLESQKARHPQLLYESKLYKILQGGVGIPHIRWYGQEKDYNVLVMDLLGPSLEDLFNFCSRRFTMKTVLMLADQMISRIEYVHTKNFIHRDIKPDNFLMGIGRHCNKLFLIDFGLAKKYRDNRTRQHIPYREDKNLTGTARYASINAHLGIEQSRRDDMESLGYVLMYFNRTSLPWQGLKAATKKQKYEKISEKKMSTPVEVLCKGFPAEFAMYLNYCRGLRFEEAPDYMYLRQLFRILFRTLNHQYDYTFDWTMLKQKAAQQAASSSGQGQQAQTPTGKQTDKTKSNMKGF", "test": "Inhibition of CSNK1A1"}, "TGF-beta receptor type-1": {"target": "TGF-beta receptor type-1 (Homo sapiens, UniProt P36897)", "test": "Inhibition of TGFBR1"}, "[4]": {"target": "Cyclin-dependent kinase 1 (Homo sapiens, UniProt P06493)", "sequence (P06493 whole entry)": "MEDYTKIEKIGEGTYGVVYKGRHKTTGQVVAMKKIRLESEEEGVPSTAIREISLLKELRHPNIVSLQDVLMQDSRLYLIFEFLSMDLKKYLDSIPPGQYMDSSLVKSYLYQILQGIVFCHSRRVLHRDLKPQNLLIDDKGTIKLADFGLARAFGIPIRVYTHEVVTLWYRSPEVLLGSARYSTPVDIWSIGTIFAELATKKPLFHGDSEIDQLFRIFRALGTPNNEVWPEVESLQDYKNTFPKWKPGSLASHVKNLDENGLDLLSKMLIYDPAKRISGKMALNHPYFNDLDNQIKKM", "test": "Inhibition of CDC2"}, "[5]": {"target": "Cyclin-dependent kinase 7 (Homo sapiens, UniProt P50613)", "sequence (P50613 whole entry)": "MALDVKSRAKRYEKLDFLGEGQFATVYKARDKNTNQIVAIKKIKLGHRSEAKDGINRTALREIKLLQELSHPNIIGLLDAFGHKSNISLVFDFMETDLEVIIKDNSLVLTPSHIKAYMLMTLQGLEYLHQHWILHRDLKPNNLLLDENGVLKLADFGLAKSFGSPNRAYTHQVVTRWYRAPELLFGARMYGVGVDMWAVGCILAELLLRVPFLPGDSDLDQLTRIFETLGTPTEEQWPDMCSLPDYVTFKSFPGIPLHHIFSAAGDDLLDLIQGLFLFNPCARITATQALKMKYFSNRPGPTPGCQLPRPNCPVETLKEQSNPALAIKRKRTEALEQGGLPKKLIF", "test": "Inhibition of CDK7"}, "[6]": {"target": "Mitogen-activated protein kinase 14 (Homo sapiens, UniProt Q16539)", "test": "Inhibition of MAPK14"}, "[7]": {"target": "Serine/threonine-protein kinase D2 (Homo sapiens, UniProt Q9BZL6)", "test": "Inhibition of PRKD2"}, "[8]": {"target": "Maternal embryonic leucine zipper kinase (Homo sapiens, UniProt Q14680)", "sequence (Q14680 whole entry)": "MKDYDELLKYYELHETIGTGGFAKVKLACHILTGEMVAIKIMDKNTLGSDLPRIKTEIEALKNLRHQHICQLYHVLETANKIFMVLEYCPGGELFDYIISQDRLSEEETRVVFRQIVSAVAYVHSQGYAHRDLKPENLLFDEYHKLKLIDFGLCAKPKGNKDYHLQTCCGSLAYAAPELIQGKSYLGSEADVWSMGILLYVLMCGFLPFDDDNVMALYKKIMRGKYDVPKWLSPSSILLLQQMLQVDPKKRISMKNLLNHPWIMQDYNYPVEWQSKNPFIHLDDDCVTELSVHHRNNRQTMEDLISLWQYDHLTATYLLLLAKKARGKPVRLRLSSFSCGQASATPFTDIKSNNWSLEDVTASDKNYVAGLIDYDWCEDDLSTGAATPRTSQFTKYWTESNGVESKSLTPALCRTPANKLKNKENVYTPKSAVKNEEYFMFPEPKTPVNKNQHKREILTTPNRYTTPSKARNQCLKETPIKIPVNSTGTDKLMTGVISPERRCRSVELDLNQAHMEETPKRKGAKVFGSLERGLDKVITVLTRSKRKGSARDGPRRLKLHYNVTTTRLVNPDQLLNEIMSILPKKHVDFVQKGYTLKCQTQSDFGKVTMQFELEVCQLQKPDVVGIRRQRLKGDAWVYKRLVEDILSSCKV", "test": "Inhibition of MELK"}, "[9]": {"target": "Glycogen synthase kinase-3 beta (Homo sapiens, UniProt P49841)", "test": "Inhibition of GSK3B"}, "[10]": {"target": "Bone morphogenetic protein receptor type-1A (Homo sapiens, UniProt P36894)", "test": "Inhibition of BMPR1A"}, "[11]": {"target": "Phosphatidylinositol 4-kinase beta (Homo sapiens, UniProt Q9UBF8)", "sequence (Q9UBF8 whole entry)": "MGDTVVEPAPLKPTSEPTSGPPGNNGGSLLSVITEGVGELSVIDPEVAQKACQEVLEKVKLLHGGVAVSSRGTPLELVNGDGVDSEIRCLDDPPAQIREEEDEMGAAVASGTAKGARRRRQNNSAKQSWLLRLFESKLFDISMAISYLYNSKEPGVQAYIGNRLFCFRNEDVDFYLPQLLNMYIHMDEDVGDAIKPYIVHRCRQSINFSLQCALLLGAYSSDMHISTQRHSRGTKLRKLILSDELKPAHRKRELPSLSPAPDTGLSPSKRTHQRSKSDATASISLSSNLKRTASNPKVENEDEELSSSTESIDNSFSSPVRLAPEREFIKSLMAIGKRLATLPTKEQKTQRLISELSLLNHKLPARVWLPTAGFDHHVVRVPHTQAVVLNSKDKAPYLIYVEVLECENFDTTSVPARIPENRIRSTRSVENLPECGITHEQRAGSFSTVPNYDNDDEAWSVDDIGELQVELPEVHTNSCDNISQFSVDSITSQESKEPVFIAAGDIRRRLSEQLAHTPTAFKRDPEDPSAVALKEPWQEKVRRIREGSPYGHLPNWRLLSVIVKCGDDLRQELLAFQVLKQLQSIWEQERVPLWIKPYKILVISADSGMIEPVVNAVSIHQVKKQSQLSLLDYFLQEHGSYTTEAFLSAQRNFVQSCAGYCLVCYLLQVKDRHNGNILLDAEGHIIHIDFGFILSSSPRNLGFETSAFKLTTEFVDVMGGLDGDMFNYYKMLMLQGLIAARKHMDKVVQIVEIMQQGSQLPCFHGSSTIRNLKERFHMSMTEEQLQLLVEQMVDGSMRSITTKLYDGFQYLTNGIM", "test": "Inhibition of PIK4Cb"}, "[12]": {"target": "Serine/threonine-protein kinase TAO1 (Homo sapiens, UniProt Q7L7X3)", "test": "Inhibition of TAOK1"}, "[13]": {"target": "Proto-oncogene tyrosine-protein kinase Src (Homo sapiens, UniProt P12931)", "test": "Inhibition of SRC"}, "[14]": {"target": "Serine/threonine-protein kinase PLK4 (Homo sapiens, UniProt O00444)", "test": "Inhibition of PLK4"}, "[15]": {"target": "Serine/threonine-protein kinase 16 (Homo sapiens, UniProt O75716)", "test": "Inhibition of STK16"}, "LIM domain kinase 2": {"target": "LIM domain kinase 2 (Homo sapiens, UniProt P53671)", "test": "Inhibition of LIMK2"}, "[16]": {"target": "Calcium/calmodulin-dependent protein kinase type IV (Homo sapiens, UniProt Q16566)", "test": "Inhibition of CAMK4"}, "[17]": {"target": "Bromodomain-containing protein 3 (Homo sapiens, UniProt Q15059)", "test": "Inhibition of BRD3"}, "[18]": {"target": "Serine/threonine-protein kinase mTOR (Homo sapiens, UniProt P42345)", "test": "Inhibition of mTOR"}, "[19]": {"target": "MAP/microtubule affinity-regulating kinase 4 (Homo sapiens, UniProt Q96L34)", "test": "Inhibition of MARK4"}, "[20]": {"target": "Interleukin-1 receptor-associated kinase 3 (Homo sapiens, UniProt Q9Y616)", "test": "Inhibition of IRAK3"}, "[21]": {"target": "Mitogen-activated protein kinase kinase kinase kinase 1 (Homo sapiens, UniProt Q92918)", "test": "Inhibition of MAP4K1"}, "[22]": {"target": "Cyclin-dependent kinase 6 (Homo sapiens, UniProt Q00534)", "sequence (Q00534 whole entry)": "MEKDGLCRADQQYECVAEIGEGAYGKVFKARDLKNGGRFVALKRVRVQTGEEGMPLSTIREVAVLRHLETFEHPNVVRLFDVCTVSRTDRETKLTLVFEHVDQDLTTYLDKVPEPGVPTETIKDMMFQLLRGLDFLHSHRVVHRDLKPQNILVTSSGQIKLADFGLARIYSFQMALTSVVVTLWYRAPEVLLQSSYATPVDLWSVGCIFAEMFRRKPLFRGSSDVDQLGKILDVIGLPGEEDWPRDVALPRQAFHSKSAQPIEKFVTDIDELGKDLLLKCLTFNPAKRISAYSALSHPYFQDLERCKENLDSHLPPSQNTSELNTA", "test": "Inhibition of CDK6"}, "Mus musculus [23]": {"tested_on": "Mus musculus", "test": "Antiinflammatory activity in mouse air pouch model assessed as effect on IL-8-induced migration of granulocytes into air pouch at 1 mg/kg, po", "assay_type": "functional"}, "[24]": {"target": "Casein kinase I isoform epsilon (Homo sapiens, UniProt P49674)", "sequence (P49674 whole entry, canonical isoform)": "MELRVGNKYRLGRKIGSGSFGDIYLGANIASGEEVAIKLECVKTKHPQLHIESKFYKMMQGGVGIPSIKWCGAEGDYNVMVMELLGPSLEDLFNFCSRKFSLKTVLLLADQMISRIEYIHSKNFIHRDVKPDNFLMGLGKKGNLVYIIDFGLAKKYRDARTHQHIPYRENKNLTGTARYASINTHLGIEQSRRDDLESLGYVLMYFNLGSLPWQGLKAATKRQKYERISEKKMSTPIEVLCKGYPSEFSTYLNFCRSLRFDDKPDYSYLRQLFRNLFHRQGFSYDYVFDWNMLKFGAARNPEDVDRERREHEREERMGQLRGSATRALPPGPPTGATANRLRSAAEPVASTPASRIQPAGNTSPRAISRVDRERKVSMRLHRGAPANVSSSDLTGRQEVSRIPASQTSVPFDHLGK", "test": "Inhibition of CSNK1E"}, "Mus musculus [25]": {"tested_on": "Mus musculus", "test": "Antiinflammatory activity in mouse air pouch model assessed as effect on IL-8-induced migration of granulocytes into air pouch at 3 mg/kg, po", "assay_type": "functional"}, "[26]": {"target": "T1, Phosphatidylinositol 4,5-bisphosphate 3-kinase catalytic subunit delta isoform (Homo sapiens, UniProt O00329)", "T1 sequence (O00329 whole entry)": "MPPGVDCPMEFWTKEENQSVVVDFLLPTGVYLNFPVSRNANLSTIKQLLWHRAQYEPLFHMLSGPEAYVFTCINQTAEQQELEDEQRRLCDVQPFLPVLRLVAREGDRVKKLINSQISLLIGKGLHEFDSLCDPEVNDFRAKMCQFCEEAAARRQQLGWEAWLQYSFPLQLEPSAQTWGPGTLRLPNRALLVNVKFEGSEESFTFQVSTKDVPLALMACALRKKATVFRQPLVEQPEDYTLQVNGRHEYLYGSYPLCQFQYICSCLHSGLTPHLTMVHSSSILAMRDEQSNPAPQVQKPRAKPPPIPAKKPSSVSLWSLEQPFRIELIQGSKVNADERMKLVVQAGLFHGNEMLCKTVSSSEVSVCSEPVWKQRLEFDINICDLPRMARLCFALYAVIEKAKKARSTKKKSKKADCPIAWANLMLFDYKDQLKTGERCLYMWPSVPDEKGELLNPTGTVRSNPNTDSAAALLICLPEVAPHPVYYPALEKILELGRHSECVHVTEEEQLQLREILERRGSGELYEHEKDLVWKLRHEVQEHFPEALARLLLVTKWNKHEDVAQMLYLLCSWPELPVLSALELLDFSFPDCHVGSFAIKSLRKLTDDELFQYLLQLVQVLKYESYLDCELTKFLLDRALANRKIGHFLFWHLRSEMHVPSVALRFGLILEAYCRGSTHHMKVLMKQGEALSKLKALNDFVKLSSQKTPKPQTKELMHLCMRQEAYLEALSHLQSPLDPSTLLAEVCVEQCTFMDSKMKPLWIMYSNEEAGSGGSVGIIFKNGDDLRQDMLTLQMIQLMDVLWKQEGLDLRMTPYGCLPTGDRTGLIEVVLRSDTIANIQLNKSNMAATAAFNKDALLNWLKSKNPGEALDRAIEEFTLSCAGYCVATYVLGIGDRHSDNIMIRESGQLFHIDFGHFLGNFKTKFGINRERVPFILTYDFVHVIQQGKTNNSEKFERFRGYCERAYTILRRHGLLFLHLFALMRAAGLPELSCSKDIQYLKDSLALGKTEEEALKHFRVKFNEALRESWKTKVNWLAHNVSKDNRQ", "test": "Inhibition of PIK3Cd"}, "Activated CDC42 kinase 1": {"target": "Activated CDC42 kinase 1 (Homo sapiens, UniProt Q07912)", "test": "Inhibition of TNK2"}, "[27]": {"target": "Mitogen-activated protein kinase 8 (Homo sapiens, UniProt P45983)", "test": "Inhibition of MAPK8"}, "Mus musculus [28]": {"tested_on": "Mus musculus", "test": "Antiarthritic activity against collagen-induced arthritis mouse model assessed as inhibition of disease progression at 10 mg/kg, po BID for 14 days", "assay_type": "functional", "settings": "336 h; call rule not given here"}, "[29]": {"target": "Voltage-gated inwardly rectifying potassium channel KCNH2 (Homo sapiens, UniProt Q12809)", "test": "Inhibition of human ERG at >250 uM by patch clamp method"}, "[30]": {"target": "Casein kinase I isoform gamma-3 (Homo sapiens, UniProt Q9Y6M4)", "test": "Inhibition of CSNK1G3"}, "[31]": {"target": "Serine/threonine-protein kinase TAO3 (Homo sapiens, UniProt Q9H2K8)", "test": "Inhibition of TAOK3"}, "Wee1-like protein kinase": {"target": "Wee1-like protein kinase (Homo sapiens, UniProt P30291)", "sequence (P30291 whole entry)": "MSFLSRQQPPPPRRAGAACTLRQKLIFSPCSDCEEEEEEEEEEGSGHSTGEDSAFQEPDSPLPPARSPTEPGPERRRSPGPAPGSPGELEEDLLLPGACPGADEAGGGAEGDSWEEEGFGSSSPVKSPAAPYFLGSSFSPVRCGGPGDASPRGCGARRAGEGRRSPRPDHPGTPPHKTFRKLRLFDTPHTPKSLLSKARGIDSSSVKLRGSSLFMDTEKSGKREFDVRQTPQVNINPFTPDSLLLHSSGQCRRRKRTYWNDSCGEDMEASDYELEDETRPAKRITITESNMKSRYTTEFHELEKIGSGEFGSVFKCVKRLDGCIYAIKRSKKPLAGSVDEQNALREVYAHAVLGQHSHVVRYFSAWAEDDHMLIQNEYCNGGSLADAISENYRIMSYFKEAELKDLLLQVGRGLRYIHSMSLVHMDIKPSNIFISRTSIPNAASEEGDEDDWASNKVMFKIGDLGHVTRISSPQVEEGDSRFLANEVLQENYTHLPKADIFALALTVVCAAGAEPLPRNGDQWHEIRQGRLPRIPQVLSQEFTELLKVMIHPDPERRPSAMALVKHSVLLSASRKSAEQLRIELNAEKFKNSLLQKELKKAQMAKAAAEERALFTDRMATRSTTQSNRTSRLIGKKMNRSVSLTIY", "test": "Inhibition of WEE1"}, "[32]": {"target": "BMP-2-inducible protein kinase (Homo sapiens, UniProt Q9NSY1)", "sequence (Q9NSY1 whole entry)": "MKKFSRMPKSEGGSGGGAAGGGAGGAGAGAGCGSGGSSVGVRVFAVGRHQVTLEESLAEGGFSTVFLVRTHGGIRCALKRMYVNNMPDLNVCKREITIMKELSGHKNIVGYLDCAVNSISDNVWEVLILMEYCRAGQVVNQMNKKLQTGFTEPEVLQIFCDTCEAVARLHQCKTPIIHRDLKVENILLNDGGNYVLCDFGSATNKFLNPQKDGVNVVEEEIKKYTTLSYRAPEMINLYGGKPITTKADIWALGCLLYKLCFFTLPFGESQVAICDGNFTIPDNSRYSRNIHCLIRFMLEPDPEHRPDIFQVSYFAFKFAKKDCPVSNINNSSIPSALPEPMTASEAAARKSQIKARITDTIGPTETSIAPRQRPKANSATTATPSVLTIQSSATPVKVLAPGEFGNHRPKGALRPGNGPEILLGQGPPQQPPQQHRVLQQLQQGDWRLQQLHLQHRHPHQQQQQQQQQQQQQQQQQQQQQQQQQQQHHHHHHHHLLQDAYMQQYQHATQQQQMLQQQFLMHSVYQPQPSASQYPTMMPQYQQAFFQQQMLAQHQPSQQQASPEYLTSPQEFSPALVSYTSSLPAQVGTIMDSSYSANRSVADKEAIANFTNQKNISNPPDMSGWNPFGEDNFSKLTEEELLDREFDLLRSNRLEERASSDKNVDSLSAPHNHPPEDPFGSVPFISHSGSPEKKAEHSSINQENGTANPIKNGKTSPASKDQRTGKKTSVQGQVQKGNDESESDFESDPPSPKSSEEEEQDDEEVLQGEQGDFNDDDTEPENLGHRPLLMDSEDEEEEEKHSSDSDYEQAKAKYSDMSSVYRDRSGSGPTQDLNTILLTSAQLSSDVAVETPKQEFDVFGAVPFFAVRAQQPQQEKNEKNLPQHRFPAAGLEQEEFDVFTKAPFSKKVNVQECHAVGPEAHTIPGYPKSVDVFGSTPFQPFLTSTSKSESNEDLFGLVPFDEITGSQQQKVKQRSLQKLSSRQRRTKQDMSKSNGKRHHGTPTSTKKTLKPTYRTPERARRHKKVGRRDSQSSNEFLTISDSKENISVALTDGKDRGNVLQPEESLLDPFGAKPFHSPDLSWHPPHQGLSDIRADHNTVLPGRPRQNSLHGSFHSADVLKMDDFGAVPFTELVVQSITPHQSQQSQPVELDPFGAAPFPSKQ", "test": "Inhibition of BMP2K"}, "[33]": {"target": "5'-AMP-activated protein kinase catalytic subunit alpha-1 (Homo sapiens, UniProt Q13131)", "test": "Inhibition of PRKAA1"}},
  "data": [
    {"smiles": "CC(C)(C)NS(=O)(=O)c1cncc(-c2ccn3nc(N)nc3c2)c1", "values": [
      {"measurement": "IC50", "setting": "[1]", "result": "> 10", "unit": "µM"},
      {"measurement": "IC50", "setting": "[2]", "result": "> 10", "unit": "µM"},
      {"measurement": "IC50", "setting": "[3]", "result": 9.12, "unit": "µM"},
      {"measurement": "IC50", "setting": "TGF-beta receptor type-1", "result": "> 10", "unit": "µM"},
      {"measurement": "IC50", "setting": "[4]", "result": "> 10", "unit": "µM"},
      {"measurement": "IC50", "setting": "[5]", "result": "> 10", "unit": "µM"},
      {"measurement": "IC50", "setting": "[6]", "result": "> 10", "unit": "µM"},
      {"measurement": "IC50", "setting": "[7]", "result": "> 10", "unit": "µM"},
      {"measurement": "IC50", "setting": "[8]", "result": "> 10", "unit": "µM"},
      {"measurement": "IC50", "setting": "[9]", "result": "> 10", "unit": "µM"},
      {"measurement": "IC50", "setting": "[10]", "result": "> 10", "unit": "µM"},
      {"measurement": "IC50", "setting": "[11]", "result": "> 10", "unit": "µM"},
      {"measurement": "IC50", "setting": "[12]", "result": "> 10", "unit": "µM"},
      {"measurement": "IC50", "setting": "[13]", "result": "> 10", "unit": "µM"},
      {"measurement": "IC50", "setting": "[14]", "result": "> 10", "unit": "µM"},
      {"measurement": "IC50", "setting": "[15]", "result": "> 10", "unit": "µM"},
      {"measurement": "IC50", "setting": "LIM domain kinase 2", "result": "> 10", "unit": "µM"},
      {"measurement": "IC50", "setting": "[16]", "result": "> 10", "unit": "µM"},
      {"measurement": "IC50", "setting": "[17]", "result": "> 10", "unit": "µM"},
      {"measurement": "IC50", "setting": "[18]", "result": "> 10", "unit": "µM"},
      {"measurement": "IC50", "setting": "[19]", "result": "> 10", "unit": "µM"},
      {"measurement": "IC50", "setting": "[20]", "result": "> 10", "unit": "µM"},
      {"measurement": "IC50", "setting": "[21]", "result": "> 10", "unit": "µM"},
      {"measurement": "IC50", "setting": "[22]", "result": "> 10", "unit": "µM"},
      {"measurement": "Activity", "setting": "Mus musculus [23]", "result": 18, "unit": "%"},
      {"measurement": "IC50", "setting": "[24]", "result": "> 10", "unit": "µM"},
      {"measurement": "Activity", "setting": "Mus musculus [25]", "result": 74, "unit": "%"},
      {"measurement": "IC50", "setting": "[26]", "result": 0.708, "unit": "µM"},
      {"measurement": "IC50", "setting": "Activated CDC42 kinase 1", "result": "> 10", "unit": "µM"},
      {"measurement": "IC50", "setting": "[27]", "result": "> 10", "unit": "µM"},
      {"measurement": "inhibition in vivo at 10 mg/kg", "setting": "Mus musculus [28]", "result": 46, "unit": "%"},
      {"measurement": "inhibition (INH)", "setting": "[29]", "result": "Not Active"},
      {"measurement": "IC50", "setting": "[30]", "result": "> 10", "unit": "µM"},
      {"measurement": "IC50", "setting": "[31]", "result": "> 10", "unit": "µM"},
      {"measurement": "IC50", "setting": "Wee1-like protein kinase", "result": "> 10", "unit": "µM"},
      {"measurement": "IC50", "setting": "[32]", "result": "> 10", "unit": "µM"},
      {"measurement": "IC50", "setting": "[33]", "result": "> 10", "unit": "µM"}
    ]}
  ]
}
